Measurements as given in patent US20240174659A1, “COMPOUNDS AND METHODS FOR YAP/TEAD MODULATION AND INDICATIONS THEREFOR” (Opna Bio SA, priority 2021, published 2024).
Structures can show the parent of a compound that is named as a salt.

Tested on: TEAD-dependent transcription
Assay: Inhibitor activity against TEAD-dependent transcription in a cell-based reporter assay (MSTO-211H+12XGTIIC luciferase)
Settings: Homo sapiens; MSTO-211H+12XGTIIC cells, 24 hours incubation, luciferase luminescence normalized to cell viability fluorescence, geometric mean; read-out: MSTO-211H GMean IC50 (uM) Cell Assay Reporter Cell Variant: TEAD
Excerpt: Determine Inhibitor Activity Against TEAD-Dependent Transcription in a Cell-Based Reporter Assay
The human mesothelioma cell line MSTO-211H was stably transfected with a pGL4.21 plasmid containing a synthetic promoter with 12 copies of the GTIIC TEAD response element that drives the expression of a luciferase reporter gene^1 using Lipofectamine transfection reagent (Thermo Fisher). Transfected cells were selected using puromycin and single cell clones expressing this construct (referred to as MSTO-211H+12XGTIIC) were generated by limiting dilution. MSTO-211H cells was characterized by genetic alterations in key components of the Hippo pathway^2, resulting in up-regulation of YAP/TEAD-mediated transcription. […] To evaluate TEAD inhibitors, the MSTO-211H+12XGTIIC cell line was seeded in a 96-well plate in 50 μL of culture media at 1×10^4 cells per well and incubated at 37° C. overnight. Serial dilutions of compounds (in total volume of 50 μL of culture media) were added to the cells and incubated at 37° C. for 24 hours. Each plate included cells treated with DMSO as high controls and cells treated with 20 μM of the reference compound K-975 (a known TEAD inhibitor)^3 as low controls. Cell viability was assayed by the addition of 25 μL of CellTiter-Fluor reagent (Promega) followed by a 30-minute incubation at 37° C. and quantification of the fluorescence signal (Ex400/Em505). Subsequently, luciferase expression was assayed by the addition of 25 μL of ONE-Glo reagent (Promega) followed by a 10-minute incubation at room temperature and quantification of the luminescence signal. The luminescence signal was normalized to the fluorescence signal to correct for any loss in cell viability over the 24-hour compound incubation period. The percentage of inhibition of normalized luminescence signal, indicative of compound-mediated inhibition of TEAD-dependent transcription, at individual compound concentrations relative to high and low controls was calculated. The data were analyzed by using nonlinear regression to generate IC50 values for individual compounds.

SMILES	IC50
C=CC(=O)N1CCc2ccc(Oc3ccccc3F)cc2C1 [P-0063, 1-(7-(2-fluorophenoxy)-3,4-dihydroisoquinolin-2(1H)-yl)prop-2-en-1-one]	0.001 to 0.5 µM
C=CC(=O)N1CCc2cccc(Nc3cccc(F)c3)c2C1 [P-0003, 1-(8-((3-fluorophenyl)amino)-3,4-dihydroisoquinolin-2(1H)-yl)prop-2-en-1-one]	0.5 to 20 µM
C=CC(=O)N1CCc2ccc(Oc3ccc(F)c(C(F)(F)F)c3)cc2C1 [P-0044, 1-(7-(4-fluoro-3-(trifluoromethyl)phenoxy)-3,4-dihydroisoquinolin-2(1H)-yl)prop-2-en-1-one]	0.001 to 0.5 µM
C=CC(=O)N1CCc2ccc(OCC3CC(F)(F)C3)cc2C1 [P-0107, 1-(7-((3,3-difluorocyclobutyl)methoxy)-3,4-dihydroisoquinolin-2(1H)-yl)prop-2-en-1-one]	0.001 to 0.5 µM
C=CC(=O)N1CCc2ccc(O[C@H]3C[C@@H]4[C@H](C3)C4(F)F)cc2C1 [P-0075, 1-(7-(((1R,3r,5S)-6,6-difluorobicyclo[3.1.0]hexan-3-yl)oxy)-3,4-dihydroisoquinolin-2(1H)-yl)prop-2-en-1-one]	0.001 to 0.5 µM
C=CC(=O)N1CCc2ccc(Cc3ccc(C(F)(F)F)nc3)cc2C1 [P-0104, 1-(7-((6-(trifluoromethyl)pyridin-3-yl)methyl)-3,4-dihydroisoquinolin-2(1H)-yl)prop-2-en-1-one]	0.001 to 0.5 µM
C=CC(=O)N1CCc2ccc(OC34CC5CC(CC(C5)C3)C4)cc2C1 [P-0021, 1-(7-(((3R,5R)-adamantan-1-yl)oxy)-3,4-dihydroisoquinolin-2(1H)-yl)prop-2-en-1-one]	0.001 to 0.5 µM
C=CC(=O)N1CCc2ccc(Oc3cccc(C(F)(F)F)n3)cc2C1 [P-0069, 1-(7-((6-(trifluoromethyl)pyridin-2-yl)oxy)-3,4-dihydroisoquinolin-2(1H)-yl)prop-2-en-1-one]	0.5 to 20 µM
C=CC(=O)N1CCc2ccc(O[C@@H]3C[C@@H]4[C@H](C3)C4(F)F)cc2C1 [P-0086, 1-(7-(((1R,3s,5S)-6,6-difluorobicyclo[3.1.0]hexan-3-yl)oxy)-3,4-dihydroisoquinolin-2(1H)-yl)prop-2-en-1-one]	0.001 to 0.5 µM
C=CC(=O)N1CCc2ccc(Cc3ccccc3)cc2C1 [P-0033, 1-(7-benzyl-3,4-dihydroisoquinolin-2(1H)-yl)prop-2-en-1-one]	0.001 to 0.5 µM
C=CC(=O)N1CCc2cc(F)c(Oc3ccccc3)cc2C1 [P-0030, 1-(6-fluoro-7-phenoxy-3,4-dihydroisoquinolin-2(1H)-yl)prop-2-en-1-one]	0.001 to 0.5 µM
C=CC(=O)N1CCc2ccc(OCC3CCC(F)(F)CC3)cc2C1 [P-0080, 1-(7-((4,4-difluorocyclohexyl)methoxy)-3,4-dihydroisoquinolin-2(1H)-yl)prop-2-en-1-one]	0.001 to 0.5 µM
C=CC(=O)N1CCc2ccc(Cc3ccc(C(F)(F)F)c(F)c3)cc2C1 [P-0068, 1-(7-(3-fluoro-4-(trifluoromethyl)benzyl)-3,4-dihydroisoquinolin-2(1H)-yl)prop-2-en-1-one]	0.001 to 0.5 µM
C=CC(=O)N1CCc2ccc(OCc3ccc(C(F)(F)F)cc3)cc2C1 [P-0078, 1-(7-((4-(trifluoromethyl)benzyl)oxy)-3,4-dihydroisoquinolin-2(1H)-yl)prop-2-en-1-one]	0.5 to 20 µM
C=CC(=O)N1CCc2ccc(N[C@H]3CC[C@H](C(F)(F)F)CC3)cc2C1 [P-0056, 1-(7-(((1r,4r)-4-(trifluoromethyl)cyclohexyl)amino)-3,4-dihydroisoquinolin-2(1H)-yl)prop-2-en-1-one]	0.001 to 0.5 µM
C=CC(=O)N1CCc2c(F)cc(Oc3ccc(C(F)(F)F)nc3)cc2C1 [P-0101, 1-(5-fluoro-7-((6-(trifluoromethyl)pyridin-3-yl)oxy)-3,4-dihydroisoquinolin-2(1H)-yl)prop-2-en-1-one]	0.001 to 0.5 µM
C/C=C/C(=O)N1CCc2ccc(Oc3ccc(C(F)(F)F)cc3)cc2C1 [P-0123, (E)-1-(7-(4-(trifluoromethyl)phenoxy)-3,4-dihydroisoquinolin-2(1H)-yl)but-2-en-1-one]	0.001 to 0.5 µM
C=CC(=O)N1CCc2ccc(Oc3ccc(C)nc3)cc2C1 [P-0036, 1-(7-((6-methylpyridin-3-yl)oxy)-3,4-dihydroisoquinolin-2(1H)-yl)prop-2-en-1-one]	0.001 to 0.5 µM
C=CC(=O)N1CCc2cc(F)c(OC3CCC(F)(F)CC3)cc2C1 [P-0102, 1-(7-((4,4-difluorocyclohexyl)oxy)-6-fluoro-3,4-dihydroisoquinolin-2(1H)-yl)prop-2-en-1-one]	0.001 to 0.5 µM

SMILES	IC50
C=C(C)S(=O)(=O)N1CCc2ccc(Oc3ccc(C(F)(F)F)cc3)cc2C1 [P-0127, 2-(prop-1-en-2-ylsulfonyl)-7-(4-(trifluoromethyl)phenoxy)-1,2,3,4-tetrahydroisoquinoline]	0.001 to 0.5 µM
C=CC(=O)N1CCc2c(F)cc(Oc3ccc(C(F)(F)F)cc3)cc2C1 [P-0113, 1-(5-fluoro-7-(4-(trifluoromethyl)phenoxy)-3,4-dihydroisoquinolin-2(1H)-yl)prop-2-en-1-one]	0.001 to 0.5 µM
C=CC(=O)N1CCc2ccc(OCc3ccccc3)cc2C1 [P-0002, 1-(7-(benzyloxy)-3,4-dihydroisoquinolin-2(1H)-yl)prop-2-en-1-one]	0.001 to 0.5 µM
C=C(CO)C(=O)N1CCc2ccc(Oc3cccc(F)c3)cc2C1 [P-0038, 1-(7-(3-fluorophenoxy)-3,4-dihydroisoquinolin-2(1H)-yl)-2-(hydroxymethyl)prop-2-en-1-one]	0.001 to 0.5 µM
C=CC(=O)N1CCc2ccc(NC34CCC(CC3)CC4)cc2C1 [P-0054, 1-(7-(bicyclo[2.2.2]octan-1-ylamino)-3,4-dihydroisoquinolin-2(1H)-yl)prop-2-en-1-one formate]	0.001 to 0.5 µM
C=CC(=O)N1CCc2ccc(OC3CCC(F)(F)CC3)cc2C1 [P-0062, 1-(7-((4,4-difluorocyclohexyl)oxy)-3,4-dihydroisoquinolin-2(1H)-yl)prop-2-en-1-one]	0.001 to 0.5 µM
C=CC(=O)N1CCc2ccc(Nc3ccccc3)cc2C1 [P-0010, 1-(7-(phenylamino)-3,4-dihydroisoquinolin-2(1H)-yl)prop-2-en-1-one]	0.001 to 0.5 µM
C=CC(=O)N1CCc2ccc(Nc3cccc(Cl)c3)cc2C1 [P-0024, 1-(7-((3-chlorophenyl)amino)-3,4-dihydroisoquinolin-2(1H)-yl)prop-2-en-1-one]	0.001 to 0.5 µM
C=CC(=O)N1CCc2cc(F)c(Oc3ccc(C(F)(F)F)cc3)cc2C1 [P-0103, 1-(6-fluoro-7-(4-(trifluoromethyl)phenoxy)-3,4-dihydroisoquinolin-2(1H)-yl)prop-2-en-1-one]	0.001 to 0.5 µM
C=CC(=O)N1CCc2ccc(Oc3cccnc3)cc2C1 [P-019, 1-(7-(pyridin-3-yloxy)-3,4-dihydroisoquinolin-2(1H)-yl)prop-2-en-1-one]	0.001 to 0.5 µM
C=CC(=O)N1CCc2ccc(Oc3ccc(C4CC4)cc3)cc2C1 [P-0047, 1-(7-(4-cyclopropylphenoxy)-3,4-dihydroisoquinolin-2(1H)-yl)prop-2-en-1-one]	0.001 to 0.5 µM
C=CC(=O)N1CCc2ccc(OCc3ccccc3C(F)(F)F)cc2C1 [P-0088, 1-(7-((2-(trifluoromethyl)benzyl)oxy)-3,4-dihydroisoquinolin-2(1H)-yl)prop-2-en-1-one]	0.001 to 0.5 µM
C=CC(=O)N1CCc2ccc(OCc3ccc(C(F)(F)F)nc3)cc2C1 [P-0079, 1-(7-((6-(trifluoromethyl)pyridin-3-yl)methoxy)-3,4-dihydroisoquinolin-2(1H)-yl)prop-2-en-1-one]	> 20 µM
C=CC(=O)N1CCc2ccc(Nc3ccnc(C(F)(F)F)c3)cc2C1 [P-0011, 1-(7-((2-(trifluoromethyl)pyridin-4-yl)amino)-3,4-dihydroisoquinolin-2(1H)-yl)prop-2-en-1-one]	0.5 to 20 µM
C=CC(=O)N1CCc2ccc(Oc3ccc(C#N)cc3)cc2C1 [P-0115, 4-((2-acryloyl-1,2,3,4-tetrahydroisoquinolin-7-yl)oxy)benzonitrile]	0.001 to 0.5 µM
C=C(F)C(=O)N1CCc2ccc(Oc3ccc(C(F)(F)F)nc3)cc2C1 [P-0051, 2-fluoro-1-(7-((6-(trifluoromethyl)pyridin-3-yl)oxy)-3,4-dihydroisoquinolin-2(1H)-yl)prop-2-en-1-one]	0.001 to 0.5 µM
C=CC(=O)N1CCc2ccc(Oc3ccc(C(F)(F)F)nc3)cc2C1 [P-0027, 1-(7-((6-(trifluoromethyl)pyridin-3-yl)oxy)-3,4-dihydroisoquinolin-2(1H)-yl)prop-2-en-1-one]	0.001 to 0.5 µM
C=CC(=O)N1CCc2cccc(Oc3cccc(F)c3)c2C1 [P-0005, 1-(8-(3-fluorophenoxy)-3,4-dihydroisoquinolin-2(1H)-yl)prop-2-en-1-one]	0.001 to 0.5 µM
C=CC(=O)N1CCc2ccc(Oc3cccc(F)c3)cc2C1 [P-0006, 1-(7-(3-fluorophenoxy)-3,4-dihydroisoquinolin-2(1H)-yl)prop-2-en-1-one]	0.001 to 0.5 µM
